In experiment [1] the target is HDAC 4 human recombinant enzyme (Homo sapiens, UniProt P56524). Briefly: HDAC 4 assay (BPS Bioscience kit). Conditions: Compound tested at 1 uM.
Method: (§1) For HDAC 4-8 assays, kits from BPS Bioscience (https://bpsbioscience.com/) were used and their recommended protocols followed. […] Each compound was dissolved in DMSO to generate a 100 μM stock solution, then diluted using HPLC-grade water to prepare 10 μM, 2 μM, and 1 μM solutions. These solutions were used for the assays. […] Assays utilized a BioTek Synergy H1 microplate reader and black Nunc MicroWell 96-well optical-bottom plates with polymer base.
(§2) HDAC 4 (and, by analogy, HDAC 5, 6, 7, and 8): 40 μL of the parent solution was added to each well on the plate. The parent solution was prepared from a fluorogenic HDAC substrate, a 1 mg/mL solution of bovine serum albumin (BSA) in water, and HDAC assay buffer. 5 μL of the inhibitor buffer (10% DMSO in water) was added to the wells designated as “Blank” and “Positive Control” (no inhibitor). 5 μL of the test compound was added to each well designated as “Test Inhibitor”. Different concentrations of TSA (for a standard curve) was added to each well designated as “Standard.” 5 μL of HDAC assay buffer was added to the “Blank” wells. […] Afterwards, the plate was analyzed using a BioTek Synergy H1 microplate reader, taking two independent readings per well that were subsequently averaged.
The target in experiment [2] is HDAC 5 (Homo sapiens, UniProt Q9UQL6). Kind of experiment: HDAC 5 assay (BPS Bioscience kit).
Method: as §1, §2
Experiment [3] addresses T1, HDAC 6 (Homo sapiens, UniProt Q9UBN7).
T1 sequence (Q9UBN7 1-1215): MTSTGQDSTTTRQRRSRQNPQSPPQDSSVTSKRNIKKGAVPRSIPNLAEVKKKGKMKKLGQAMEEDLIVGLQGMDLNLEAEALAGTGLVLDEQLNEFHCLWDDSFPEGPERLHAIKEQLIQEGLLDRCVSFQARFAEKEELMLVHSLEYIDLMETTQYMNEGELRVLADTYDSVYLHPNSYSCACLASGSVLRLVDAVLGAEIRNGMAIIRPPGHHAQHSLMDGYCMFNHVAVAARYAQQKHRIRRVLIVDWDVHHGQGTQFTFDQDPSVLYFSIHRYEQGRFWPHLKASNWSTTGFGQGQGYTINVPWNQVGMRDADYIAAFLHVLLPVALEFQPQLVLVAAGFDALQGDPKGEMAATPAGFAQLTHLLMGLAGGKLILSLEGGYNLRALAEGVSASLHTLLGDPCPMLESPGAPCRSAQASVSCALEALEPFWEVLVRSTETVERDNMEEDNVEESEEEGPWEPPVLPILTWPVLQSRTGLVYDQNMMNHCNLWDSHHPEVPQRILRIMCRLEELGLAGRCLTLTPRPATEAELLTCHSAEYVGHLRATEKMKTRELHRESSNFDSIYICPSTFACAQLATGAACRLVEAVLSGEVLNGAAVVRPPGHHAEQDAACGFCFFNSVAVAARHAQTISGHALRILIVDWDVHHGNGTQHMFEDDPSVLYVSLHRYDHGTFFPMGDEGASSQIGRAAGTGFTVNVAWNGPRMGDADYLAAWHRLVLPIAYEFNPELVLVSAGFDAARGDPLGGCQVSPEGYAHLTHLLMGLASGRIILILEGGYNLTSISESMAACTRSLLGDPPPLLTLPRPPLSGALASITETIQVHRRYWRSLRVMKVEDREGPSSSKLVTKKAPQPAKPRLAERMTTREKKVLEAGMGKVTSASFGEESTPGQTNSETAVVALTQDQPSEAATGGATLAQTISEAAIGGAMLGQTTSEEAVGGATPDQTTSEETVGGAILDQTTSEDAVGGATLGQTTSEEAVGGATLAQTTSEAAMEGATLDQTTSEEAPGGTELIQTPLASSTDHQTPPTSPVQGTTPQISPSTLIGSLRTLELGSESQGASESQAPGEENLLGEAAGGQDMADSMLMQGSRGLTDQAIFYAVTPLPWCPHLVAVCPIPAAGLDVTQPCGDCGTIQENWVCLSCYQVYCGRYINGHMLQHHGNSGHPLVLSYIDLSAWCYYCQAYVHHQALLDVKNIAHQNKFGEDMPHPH
Briefly: HDAC 6 assay (BPS Bioscience kit). Conditions: footnotes b,c: tested at 200 nM; 100 nM; variable, average of 2 independent measurements.
Method: as §1
(§3) HDAC 4 (and, by analogy, HDAC 5, 6, 7, and 8): 40 μL of the parent solution was added to each well on the plate. The parent solution was prepared from a fluorogenic HDAC substrate, a 1 mg/mL solution of bovine serum albumin (BSA) in water, and HDAC assay buffer. 5 μL of the inhibitor buffer (10% DMSO in water) was added to the wells designated as “Blank” and “Positive Control” (no inhibitor). 5 μL of the test compound was added to each well designated as “Test Inhibitor”. Different concentrations of TSA (for a standard curve) was added to each well designated as “Standard.” 5 μL of HDAC assay buffer was added to the “Blank” wells. Then, 5 μL of HDAC 4 human recombinant enzyme was added to the wells designated as “Positive Control”, “Test Inhibitor”, and “Standard.” The plate was then warmed in an incubator at 37° C. with a rocker platform for 30 min After the incubation, 50 μL of 2×HDAC Developer solution was added to each well. The plate was returned to the incubator and was shaken on the rocker for an additional 15 min. at room temperature. Afterwards, the plate was analyzed using a BioTek Synergy H1 microplate reader, taking two independent readings per well that were subsequently averaged.

The target of experiment [4] is T2, HDAC 7 (Homo sapiens, UniProt Q8WUI4).
T2 sequence (Q8WUI4 1-952): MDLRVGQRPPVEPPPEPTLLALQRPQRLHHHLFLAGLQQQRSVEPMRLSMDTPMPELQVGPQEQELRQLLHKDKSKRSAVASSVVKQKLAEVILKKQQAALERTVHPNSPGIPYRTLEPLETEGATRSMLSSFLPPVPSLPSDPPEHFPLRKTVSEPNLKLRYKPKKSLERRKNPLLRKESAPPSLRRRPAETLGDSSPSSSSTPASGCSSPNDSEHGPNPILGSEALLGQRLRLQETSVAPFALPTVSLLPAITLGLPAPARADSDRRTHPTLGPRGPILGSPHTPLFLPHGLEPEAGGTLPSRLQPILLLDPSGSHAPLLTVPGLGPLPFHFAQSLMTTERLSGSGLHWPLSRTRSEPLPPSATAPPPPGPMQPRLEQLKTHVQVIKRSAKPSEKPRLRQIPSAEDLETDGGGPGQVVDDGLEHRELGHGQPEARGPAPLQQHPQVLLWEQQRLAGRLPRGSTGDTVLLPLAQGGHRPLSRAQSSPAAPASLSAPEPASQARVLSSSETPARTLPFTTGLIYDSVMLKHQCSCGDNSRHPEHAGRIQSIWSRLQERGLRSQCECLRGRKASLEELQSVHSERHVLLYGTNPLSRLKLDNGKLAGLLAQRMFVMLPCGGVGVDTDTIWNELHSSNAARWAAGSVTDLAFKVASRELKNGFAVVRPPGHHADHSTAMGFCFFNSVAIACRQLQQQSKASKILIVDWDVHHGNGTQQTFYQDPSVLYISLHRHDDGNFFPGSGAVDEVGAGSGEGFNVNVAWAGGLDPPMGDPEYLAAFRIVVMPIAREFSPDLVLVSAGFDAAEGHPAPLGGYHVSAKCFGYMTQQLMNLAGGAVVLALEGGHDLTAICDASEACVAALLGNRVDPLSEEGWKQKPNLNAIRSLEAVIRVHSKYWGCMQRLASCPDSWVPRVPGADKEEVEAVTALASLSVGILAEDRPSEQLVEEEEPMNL
Kind of experiment: HDAC 7 assay (BPS Bioscience kit).
Method: as §1, §2

The target in experiment [5] is T3, HDAC 8 (Homo sapiens, UniProt Q9BY41).
T3 sequence (Q9BY41 1-377): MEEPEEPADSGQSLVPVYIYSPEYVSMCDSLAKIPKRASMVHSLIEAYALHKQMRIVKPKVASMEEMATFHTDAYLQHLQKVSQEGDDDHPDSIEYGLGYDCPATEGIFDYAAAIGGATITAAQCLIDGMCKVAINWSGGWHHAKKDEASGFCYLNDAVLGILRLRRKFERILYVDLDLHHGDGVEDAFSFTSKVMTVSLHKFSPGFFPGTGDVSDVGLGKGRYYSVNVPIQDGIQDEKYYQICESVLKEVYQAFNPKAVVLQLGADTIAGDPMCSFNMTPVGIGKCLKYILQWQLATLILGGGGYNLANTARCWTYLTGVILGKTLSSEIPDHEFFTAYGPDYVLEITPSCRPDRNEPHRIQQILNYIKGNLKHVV
Kind of experiment: HDAC 8 assay (BPS Bioscience kit). Conditions: footnotes a,c: tested at 1 uM; 100 nM; average of 2 independent measurements.
Method: as §1, §3

In experiment [6] the test system is HDAC 1-3. Briefly: HDAC 1-3 assay (BioVision kit, HeLa nuclear extract). The note with it: Compound tested at 1 uM.
Method: For HDAC 1-3 assays, kits from BioVision Incorporated (https://www.biovision.com/) were used and their recommended protocols followed. […] Each compound was dissolved in DMSO to generate a 100 μM stock solution, then diluted using HPLC-grade water to prepare 10 μM, 2 μM, and 1 μM solutions. These solutions were used for the assays. […] Assays utilized a BioTek Synergy H1 microplate reader and black Nunc MicroWell 96-well optical-bottom plates with polymer base.
HDAC 1-3: 10 μL of each diluted compound (10 μM) and 40 μL of HPLC-grade water were mixed and added into a well on the plate. […] Then, 50 μL of the reaction mixture was added to each well and the solution was mixed thoroughly. The reaction mixture consisted of 500 μL of 10×HDAC Assay buffer, 100 μL of HeLa nuclear extract, 250 μL of HDAC substrate, and 1.65 mL of HPLC-grade water. The plate was then warmed in an incubator at 37° C. with a rocker platform and was incubated for 30 min. After the incubation, 10 μL of Lysine Developer solution was added to each well. The plate was kept in the incubator for an additional 30 min. Afterwards, the plate was analyzed using a BioTek Synergy H1 microplate reader, taking two independent readings per well that were subsequently averaged.
Experiment [7] relates to HEK293 cells that express an HTT exon containing 17 glutamine repeats (HTT17Q-mCherry). Briefly: Huntington's Disease (HD) model: protein aggregates (puncta) per cell in HEK293H cells transfected with HTT17Q-mCherry. The note with it: for Effect on aggregate suppression compared to the MAL1-271 positive control: Example 1, FIG. 2, 10 μM compound, 6 h; for Activity in cell based HD assay (active analogs of Hsp70 agonist): summary of Example 1.
Method: Cells were stained for confocal microscope imaging with 4′,6-diamidino-2-phenylindole (DAPI), a fluorescent dye with high affinity to adenine-thymine rich DNA regions. A bright spot detection tool was used to identify and quantify the number of protein aggregates (“dots”) per cell.
Biological Assays: For HD assays, HEK293H cells were grown in DMEM (Sigma-Aldrich, Saint Louis, MO) supplemented with 10% fetal bovine serum (GE Healthcare Hyclone) and 1% penicillin/streptomycin (Thermo Fisher Scientific, Waltham, MA) at 37° C. and at a 5% CO2 atmosphere. Cells were seeded at 250,000 cells/plate in Poly-D-Lysine Coated 35 mm MatTek dishes (P35GC-1.5-10-C, MatTek Corporation, Ashland, MA). After 24 h growth, a total of 4 μg of mCherry tagged-polyglutamine-expanded (17-polyQ-expanded) huntingtin (HTT) was introduced using Lipofectamine 2000 (Invitrogen, Thermo Fisher Scientific) according to the manufacturer's instructions. […] The following day, cells were treated with vehicle (DMSO) as control or with 10 μM of the examined compounds for 6 h. The cells were then washed with PBS and fixed in 4% formaldehyde for 15 min at room temperature. Finally, cells were stained with DAPI (1:250 in PBS) for 4 h and maintained in PBS for confocal microscope imaging.
Complete volumes of cells were acquired at 0.5-μm steps, and volumes were reconstructed and analyzed using Nikon's NIS-Elements software (Nikon Instrument, Melville, NY). Bright spot detection tool was used to identify and quantify the number of protein aggregates (“dots”) per cell. A non-parametric Kruskal-Wallis test analysis was performed using Prism software (GraphPad, La Jolla, CA). Statistically significant differences between control (DMSO) and compound treated samples are indicated by asterisks in figure. To obtain representative images from this experiment, maximum intensity projections of 0.5-μm steps though the entire cell were generated using Nikon's NIS-Elements software.
Cells were stained for confocal microscope imaging with 4′,6-diamidino-2-phenylindole (DAPI) and bright spot detection tool was used to identify and quantify the number of protein aggregates (“dots”) per cell.

Results on 2 compounds are retold here after US12600705B2, “Heat shock protein modulators and anti-Huntington disease therapeutic agents” (UNIVERSITY OF PITTSBURGH-OF THE COMMONWEALTH SYSTEM OF …, priority 2020, dated 2026).

Broadly, the inhibition is the share of the control response that was lost under treatment.

Chain of HDAC 4 human recombinant enzyme (P56524 whole entry): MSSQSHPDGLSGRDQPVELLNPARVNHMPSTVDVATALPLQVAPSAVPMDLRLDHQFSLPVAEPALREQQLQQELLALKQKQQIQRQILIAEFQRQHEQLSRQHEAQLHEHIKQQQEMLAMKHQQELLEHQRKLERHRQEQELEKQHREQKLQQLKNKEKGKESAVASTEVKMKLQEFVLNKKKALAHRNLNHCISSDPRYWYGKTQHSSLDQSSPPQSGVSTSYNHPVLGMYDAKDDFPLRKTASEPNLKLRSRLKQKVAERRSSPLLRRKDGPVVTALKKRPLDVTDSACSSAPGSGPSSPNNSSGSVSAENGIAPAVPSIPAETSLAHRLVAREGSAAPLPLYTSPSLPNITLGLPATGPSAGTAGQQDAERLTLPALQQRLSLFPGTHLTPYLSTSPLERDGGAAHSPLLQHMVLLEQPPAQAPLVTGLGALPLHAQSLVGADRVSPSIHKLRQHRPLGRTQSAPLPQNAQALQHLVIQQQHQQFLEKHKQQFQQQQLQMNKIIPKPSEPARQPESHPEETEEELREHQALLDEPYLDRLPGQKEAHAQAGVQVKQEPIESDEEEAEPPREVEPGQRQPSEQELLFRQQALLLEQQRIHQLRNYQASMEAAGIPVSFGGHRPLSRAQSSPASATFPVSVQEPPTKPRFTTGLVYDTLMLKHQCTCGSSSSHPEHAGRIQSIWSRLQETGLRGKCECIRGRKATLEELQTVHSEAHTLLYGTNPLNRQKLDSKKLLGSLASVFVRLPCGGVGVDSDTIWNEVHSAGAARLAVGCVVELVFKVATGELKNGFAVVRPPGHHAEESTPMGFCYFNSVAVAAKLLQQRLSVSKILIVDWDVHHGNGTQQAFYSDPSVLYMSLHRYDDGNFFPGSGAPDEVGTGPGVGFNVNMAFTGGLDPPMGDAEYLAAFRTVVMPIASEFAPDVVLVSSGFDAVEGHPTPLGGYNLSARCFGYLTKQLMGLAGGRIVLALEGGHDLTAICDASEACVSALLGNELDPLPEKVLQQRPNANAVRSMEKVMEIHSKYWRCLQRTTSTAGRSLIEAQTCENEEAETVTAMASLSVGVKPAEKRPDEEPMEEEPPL
Chain of HDAC 5 (Q9UQL6 whole entry): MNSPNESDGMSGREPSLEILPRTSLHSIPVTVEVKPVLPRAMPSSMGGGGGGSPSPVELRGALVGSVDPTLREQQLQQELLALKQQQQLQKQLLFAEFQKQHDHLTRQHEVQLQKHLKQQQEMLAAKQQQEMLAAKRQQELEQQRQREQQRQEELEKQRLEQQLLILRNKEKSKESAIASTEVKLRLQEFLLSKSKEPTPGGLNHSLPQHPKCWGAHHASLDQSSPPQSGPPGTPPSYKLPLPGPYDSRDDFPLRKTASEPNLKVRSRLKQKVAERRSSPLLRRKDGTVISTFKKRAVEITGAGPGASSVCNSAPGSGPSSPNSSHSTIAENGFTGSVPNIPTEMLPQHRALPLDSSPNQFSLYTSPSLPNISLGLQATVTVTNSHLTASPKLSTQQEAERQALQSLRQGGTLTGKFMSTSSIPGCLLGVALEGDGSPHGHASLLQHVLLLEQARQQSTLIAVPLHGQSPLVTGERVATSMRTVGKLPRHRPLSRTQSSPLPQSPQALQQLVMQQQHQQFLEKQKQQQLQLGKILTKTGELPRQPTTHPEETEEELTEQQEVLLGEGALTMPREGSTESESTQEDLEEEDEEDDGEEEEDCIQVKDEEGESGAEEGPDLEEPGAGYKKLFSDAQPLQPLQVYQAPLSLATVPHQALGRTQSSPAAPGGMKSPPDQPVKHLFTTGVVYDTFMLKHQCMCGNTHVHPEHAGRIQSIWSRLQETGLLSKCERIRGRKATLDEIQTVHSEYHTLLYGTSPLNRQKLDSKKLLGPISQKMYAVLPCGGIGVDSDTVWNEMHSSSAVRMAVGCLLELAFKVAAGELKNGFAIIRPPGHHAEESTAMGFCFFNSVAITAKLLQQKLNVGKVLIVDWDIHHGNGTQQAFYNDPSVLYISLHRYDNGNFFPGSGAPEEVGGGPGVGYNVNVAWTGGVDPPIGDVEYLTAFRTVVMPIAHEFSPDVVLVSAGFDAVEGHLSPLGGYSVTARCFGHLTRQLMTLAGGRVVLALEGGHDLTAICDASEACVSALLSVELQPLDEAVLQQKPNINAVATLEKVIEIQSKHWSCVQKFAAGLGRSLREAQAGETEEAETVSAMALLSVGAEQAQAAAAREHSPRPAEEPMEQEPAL

As to `COC(=O)CCCN1C=C(C(=O)O)C(c2ccc(Cl)cc2Cl)NS1(=O)=O` (stereo not shown) [Compound 10g, 3-(2,4-Dichlorophenyl)-6-(4-methoxy-4-oxobutyl)-3,6-dihydro-2H-1,2,6-thiadiazine-4-carboxylic acid 1,1-dioxide], the “Percent inhibition HDAC 4” value in experiment [1] was “NIA”. In addition, the “Percent inhibition HDAC 5” value in experiment [2] (Compound tested at 200 nM) is reported as “NIA”. Further, in experiment [3], the “Percent inhibition HDAC 6” value is “NIA”. Moreover, the inhibition at 0.1 µM in experiment [4] (read-out: Percent inhibition HDAC 7) worked out at 1%. For the same compound, the “Percent inhibition HDAC 8” value in experiment [5] worked out at 60%^e. The “Percent inhibition HDAC 1-3” value in experiment [6] is listed as “NIA”. Moreover, in experiment [7], the “Effect on aggregate suppression compared to the MAL1-271 positive control” value was “equally effective” and the “Activity in cell based HD assay (active analogs of Hsp70 agonist)” value is recorded as “active”.

As to `CCOC(=O)C1=CNS(=O)(=O)N(Cc2ccc(C(=O)O)cc2)C1c1ccc(Cl)cc1Cl` (stereo not shown) [Compound 10i, 4-((3-(2,4-Dichlorophenyl)-4-(ethoxycarbonyl)-1,1-dioxido-3,6-dihydro-2H-1,2,6-thiadiazin-2-yl)methyl)benzoic acid], the “Percent inhibition HDAC 4” value in experiment [1] is on record as “NIA”. The inhibition at 0.2 µM in experiment [2] (read-out: Percent inhibition HDAC 5) stood at 9%. Also, in experiment [3], the “Percent inhibition HDAC 6” value stood at 40%^d. The “Percent inhibition HDAC 7” value in experiment [4] (Compound tested at 100 nM) is recorded as “NIA”. In addition, the “Percent inhibition HDAC 8” value in experiment [5] amounted to 37%^e. Further, the “Percent inhibition HDAC 1-3” value in experiment [6] is on record as “NIA”. Also, in experiment [7], the “Effect on aggregate suppression compared to the MAL1-271 positive control” value is reported as “equally effective” and the “Activity in cell based HD assay (active analogs of Hsp70 agonist)” value is “active”.
